Measurements published in patent US10717981B2, “Therapeutic compositions and methods of making and using the same” (Advanced ReGen Medical Technologies, LLC, priority 2018, dated 2020).

Experiments:
aged cells = test: Clonogenic assay (CFU-GM) of aged cells after miRNA mimic, siRNA or exosome treatment; assay type: cell-based, human; settings: overexpression of candidate miRNAs in aged isochronic cultures, vs negative control RNA
Description: Aged TNCs (10×10^6 cells per sample) were nucleofected with microRNA mimics (Qiagen), miRNA inhibitors (Qiagen), negative control siRNA (Qiagen), negative control miRNA inhibitor (Qiagen) or downstream target candidate siRNAs (Origene) using the Amaxa P3 Primary Cell 4D-Nucleofector X Kit (Lonza) on a 4D Nucleofector device (Lonza), according to manufacturer's specific protocol. Briefly, for nucleofection of CD34+ cells used in clonogenic assays, cells were nucleofected with 60 nmol total miRNA mimics, miRNA inhibitors or siRNA using the “human CD34+ cell” program. For nucleofection of T cells used in T cell activation and cell-mediated cytotoxicity assays, cells were nucleofected with 240 nmol total miRNA mimics, miRNA inhibitors or siRNA using the “human unstimulated T cell, high functionality” program.

Aged TNCs = test: Viability and cell count of aged TNCs cultured with CaMKP inhibitor (Trypan blue exclusion); assay type: cell-based, human
Experimental: Aged TNCs (20×10^6 cells per sample) were cultured with CaMKP inhibitor (FT-0640107 shown below) at the following concentrations 25 uM, 10 uM, 5 uM, 1 uM & 0 (vehicle). After 48 and 72 hours, cells were harvested, counted using Turk's solution and percent viability assessed using Trypan blue exclusion.
At 72 hours following treatment with the CaMPK inhibitor, FT-0640107, or vehicle, cells were harvested, counted and viability measured using Trypan blue exclusion.

[1] = tested on: exosomes of heterochronic cultures; test: Exosome production and RNA content in heterochronic culture with AGO2 inhibitor; assay type: cell-based, human
Experimental: Exosomes were isolated from cell culture media by the Total Exosome Isolation Kit (Life Technologies), using a modified version of the manufacturer's protocol. Briefly, 7-day isochronic and heterochronic cultures were established with Exosome-depleted FBS Media Supplement (System Biosciences), and culture media collected on the 4th and 7th days. Cells were pelleted and supernatant transferred to another tube for further clarification at 2000 g for 30 min to remove residual cells and debris. The remaining supernatant was transferred to a fresh tube and 0.5 volumes of Total Exosome Isolation reagent added for overnight incubation at 4° C. The following day samples were centrifuged at 10,000 g for 1 hr at 4° C. to pellet the exosomes for subsequent nanoparticle tracking analysis (NTA) or long-term storage at −80° C. […] For NTA, exosomes were re-suspended in 0.5 mL of PBS and measured using the following parameters: Temperature=25.6+/−0.5° C.; Viscosity=(Water) 0.99+/−0.01 cP; Measurement time=30 sec; Syringe pump speed=30. […]
Total RNA from exosomes and cells was isolated using the miRCURY RNA Isolation Kit (Exiqon) with small and large RNAs fractionated with the RNeasy MinElute Cleanup Kit (Qiagen), both according to manufacturer's recommended specifications. […] Mapped reads from individual samples were then compared to determine fold change for each miRNA. […]

restored cells = test: Transwell co-culture of donor and receiver cell samples in presence or absence of manumycin; assay type: cell-based, human
Description: Receiver cell samples (i.e., R1, R2, and R3) were individually paired with donor cell samples (i.e., D1, D2, and D3) and the pairs co-cultured in a transwell culture cell for four weeks. The morphology of the cells was studied at 2 weeks into the co-culture and at 4 weeks of co-culture. Gene expression arrays, protein arrays, and telomere length experiments compared freshly defrosted cells from the collection tubes (referred to as the baseline donor cell sample or baseline receiver cell sample) with cells at the 4-week study endpoint (referred to as restored cell samples).
Protein array analyses were carried out using conditioned media from the baseline donor cell sample or baseline receiver cell sample. The conditioned media was mixed with like cellular protein extracts and applied to the custom-designed arrays which consisted of antibody probes for 68 factors linked to cellular aging and senescence, collectively referred to as the senescence-associated secretory factors (SASF). Quantitative PCR gene array analyses were carried out by extracting RNA from the baseline samples or the co-cultured donor and receiver samples. The data presented represents the average metric determined for either the baseline donor cell sample, the baseline receiver cell sample, or the restored cell sample.
The nature of the soluble particles passing through the permeable membrane in the transwell co-culture experiments was investigated. Specifically, transwell co-culture experiments were carried out in the presence or absence of manumycin. Manumycin, -[(1S,5S,6R)-5-hydroxy-5-[(1E,3E,5E)-7-[(2-hydroxy-5-oxo-1-cyclopenten-1-yl)amino]-7-oxo-1,3,5-heptatrien-1-yl]-2-oxo-7-oxabicyclo[4.1.]hept-3-en-3-yl]-2E,4E,6R-trimethyl,2,4-decadienamide, is an antibiotic that acts a potent and selective farnesytransferase inhibitor. Mannumycin is also known to inhibit the release of exosomes. […] Further support for the role of exosome/microvesicles in mediating the disclosed cellular restoration process is shown in FIG. 36.

Experimental for aged MPB: TNC vials were quickly thawed at 37° C. and cells added dropwise 1:10 to pre-warmed RPMI-1640 equilibration solution containing 5% HSA, 30 U/mL DNase I (Sigma), 5 mM MgCl2 and 5 mM CaCl2), and incubated at 37° C. for 3-4 hrs. After equilibration, cells were pelleted, washed in RPMI-1640 with 2% BSA and resuspended in complete media containing 10% FBS. Cells were seeded at densities of 10 or 30×10^6 cells/well in 12- or 6-well plates, respectively, containing 0.4 μm transwell inserts (BD Falcon). Heterochronic cultures were established with young cells in the upper chamber and aged cells in the lower chamber. Cells were incubated at 37° C. for 7 days, with 15% of culture media replenished with fresh media on the 4th day. On the 7th day, cells were harvested by centrifugation and evaluated.
Non-adherent cells from LTC-IC assays, as well as cells from isochronic and heterochronic cultures, were studied for progenitors in short-term methylcellulose culture using a CFU-GM readout. Briefly, cultures were initiated by seeding 150 cells/mm^2 in clonogenic media containing 3 U/mL of rhGM-CSF (R&D Systems). After 10 days, cultures were scored by a single blinded observer, and colonies enumerated for CFU-GM.

miR-1303: miRNA (miR-1303), UUUAGAGACGGGGUCUUGCUCU (listed as RNA, chemistry not fully specified; listed as Homo sapiens)
aged colony formation (aged cells): significant effect

O=C(/C=C/c1ccc(/C=C/C(=O)Nc2ccc(C3=NCCN3)cc2)cc1)Nc1ccc(C2=NCCN2)cc1 [GW4869]
toxicity to the aged cultures (aged MPB): extremely toxic | restorative phenotype (aged MPB; blocking global exosome production (data not shown)): abrogated

Nc1c(S(=O)(=O)O)cc(S(=O)(=O)[O-])c2cccc(O)c12.[Na+] [FT-0640107]
cell number (Aged TNCs; 1 μM, 72 hours, vs vehicle control and high dose (25 μM), donor A04): increase in cell number | viability at 1 µM (Aged TNCs; Homo sapiens, 1 μM, 72 hours, donor A04): 96.3% | viability at 25 µM (Aged TNCs; Homo sapiens, high dose of 25 μM, 72 hours, donor A04): 93% | cell viability and cell number (Aged TNCs; donor A03, 48 or 72 hour timepoints): no significant difference

CC(NS(=O)(=O)c1ccc2[nH]c(=O)c(=O)[nH]c2c1)C(=O)O (centres unmarked) [BCI-137]
exosome production and total RNA content [1]: minimal effect | small and miRNA payload of exosomes [1]: depleted | aged MPB clonogenicity (aged MPB; inhibitor added to heterochronic cultures upon initial seeding): significant decrease

CCCC[C@@H](C)/C=C(C)/C=C(\C)C(=O)NC1=C[C@@](O)(/C=C/C=C/C=C/C(=O)NC2=C(O)CCC2=O)[C@@H]2O[C@@H]2C1=O [manumycin, -[(1S,5S,6R)-5-hydroxy-5-[(1E,3E,5E)-7-[(2-hydroxy-5-oxo-1-cyclopenten-1-yl)amino]-7-oxo-1,3,5-heptatrien-1-yl]-2-oxo-7-oxabicyclo[4.1.]hept-3-en-3-yl]-2E,4E,6R-trimethyl,2,4-decadienamide]
morphology of restored cells (restored cells; 5 μM, vs absence of manumycin): less robust morphology | telomere length of restored cell sample (restored cells; R1-D1 pair, presence vs absence of manumycin): decreased | gene expression of restored cell samples (restored cells; co-cultured in the presence of manumycin): did not display a change in expression levels similar to those observed in the absence of manumycin | protein expression (senescence-related factors) of restored cell samples (restored cells; vs co-culture in the absence of manumycin): elevated levels of all proteins investigated
